# Test results from patent US7855233B2 (Teva Pharmaceutical Industries, Ltd., priority 2009, dated 2010).
# Structures can show the parent of a compound that is named as a salt. Where two headings read alike, the source gives them in different places.
# Tests used:
# [1] = from references, cited from earlier work
# [2] = Free rasagiline base in citrate salt preparations (toluene extraction, TLC, pH); settings: for Content of extractable base (toluene) % on total base content: by ratio base to acid mole:mole
# [3] = Storage of citrate salts in sealed glass vials in refrigerator; type: physicochemical; settings: 7±2° C., sealed vial
# Description: (§1) The changes were observed and recorded.
# [4] = Exposure of citrate salts to atmospheric air in open dishes at ambient temperature; type: physicochemical; settings: for Changes on exposure to atmosphere (appearance): ambient temperature, open dish
# Description: as §1
# [5] = Aqueous salt solutions held at +5° C.; type: physicochemical; settings: 15 hrs at +5° C.
# Experimental: (§2) 3.02 g of Citric acid was dissolved in 4 ml deionized water. […] Exothermic effect was observed (temperature rose from 22 to 25° C.), and most of the solid was dissolved. Then the mixture was heated to 42° and complete dissolution of the solid was observed. The resulting clear viscous syrup-like solution was held in refrigerator at +5° C. overnight.
# 3.45 g of Citric acid was dissolved in 5 ml deionized water and pre-heated to 30° C. […] Exothermic effect was observed (temperature rose from 30 to 36° C.), and the solid was dissolved. The resulted clear viscous syrup-like solution was held in refrigerator at +5° C. overnight.
# as §2, with “3.46” for “3.02”, “5” for “4”, “27°” for “25°”, “46° C. 0.5 ml water was added” for “42°”
# physchem = settings: water
# [6] = target: B-form of the enzyme monoamine oxidase (“MAO-B”) (Homo sapiens, UniProt P27338); settings: reported in prior patents; cited from earlier work
# Chain of B-form of the enzyme monoamine oxidase (“MAO-B”) (P27338 whole entry, species assumed): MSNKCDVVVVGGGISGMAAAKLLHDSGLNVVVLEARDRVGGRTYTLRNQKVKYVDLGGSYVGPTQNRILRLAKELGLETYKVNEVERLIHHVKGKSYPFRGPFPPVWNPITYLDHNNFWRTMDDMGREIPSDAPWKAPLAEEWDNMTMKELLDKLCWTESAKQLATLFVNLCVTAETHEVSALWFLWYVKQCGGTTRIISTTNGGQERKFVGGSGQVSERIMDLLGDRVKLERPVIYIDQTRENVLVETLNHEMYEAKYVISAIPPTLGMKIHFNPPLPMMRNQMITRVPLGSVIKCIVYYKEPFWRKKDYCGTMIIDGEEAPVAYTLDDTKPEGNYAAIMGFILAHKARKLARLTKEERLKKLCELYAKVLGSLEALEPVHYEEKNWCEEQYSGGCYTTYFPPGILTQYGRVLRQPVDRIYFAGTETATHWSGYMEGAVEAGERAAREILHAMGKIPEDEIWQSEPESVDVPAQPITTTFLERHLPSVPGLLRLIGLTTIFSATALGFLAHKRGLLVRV
# [7] = Aqueous / water solubility; settings: aqueous citric acid reaction solution
# [8] = cited from earlier work
compound,measurement,setting,value
Cl [Chloride],Hygroscopicity by KF,[1]; Table 8c,Not hygroscopic
"O=C(O)CC(O)(CC(=O)O)C(=O)O [Citric Acid, Citric acid]",Hygroscopicity by KF,[1]; Table 8b,low
"C#CCNC1CCc2ccccc21.C#CCNC1CCc2ccccc21.O=C(O)CC(O)(CC(=O)O)C(=O)O (stereo not drawn) [Di-citrate, di-rasagiline citrate]",Content of extractable base (toluene) % on total base content,[2],22.0%
C#CCN[C@@H]1CCc2ccccc21.C#CCN[C@@H]1CCc2ccccc21.O=S(=O)(O)CCS(=O)(=O)O [Edisilate],Hygroscopicity by KF,[1]; Table 8c,Not hygroscopic
C#CCN[C@@H]1CCc2ccccc21.O=C(O)CC(O)(CC(=O)O)C(=O)O [Example 4b],Appearance stored in refrigerator,[3]; 0 month,White powder
same,Appearance stored in refrigerator,[3]; 3 months,White powder
same,Appearance stored in refrigerator,[3]; 6 months,White powder
same,Changes on exposure to atmosphere (appearance),[4]; 0:00 hrs:min,Powder
same,Changes on exposure to atmosphere (appearance),[4]; 1:50-2:00 hrs:min,Semi-solid
same,Changes on exposure to atmosphere (appearance),[4]; 6:00 hrs:min,Syrup
same,Changes on exposure to atmosphere (appearance),[4]; 7:00 hrs:min,Syrup
same,precipitation from solution,[5],No precipitation
C#CCN[C@@H]1CCc2ccccc21.C#CCN[C@@H]1CCc2ccccc21.O=C(O)CC(O)(CC(=O)O)C(=O)O [Example 4c],Appearance stored in refrigerator,[3]; 0 month,White powder
same,Appearance stored in refrigerator,[3]; 3 months,White powder
same,Appearance stored in refrigerator,[3]; 6 months,White powder
same,Changes on exposure to atmosphere (appearance),[4]; 0:00 hrs:min,Powder
same,Changes on exposure to atmosphere (appearance),[4]; 0:50-1:00 hrs:min,Powder
same,Changes on exposure to atmosphere (appearance),[4]; 0:30 hrs:min,Powder
same,Changes on exposure to atmosphere (appearance),[4]; 1:50-2:00 hrs:min,Powder
same,Changes on exposure to atmosphere (appearance),[4]; 5:00 hrs:min,Lump powder
same,precipitation from solution,[5],No precipitation
C#CCN[C@@H]1CCc2ccccc21.C#CCN[C@@H]1CCc2ccccc21.C#CCN[C@@H]1CCc2ccccc21.O=C(O)CC(O)(CC(=O)O)C(=O)O [Example 4d],Appearance stored in refrigerator,[3]; 0 month,White powder
same,Appearance stored in refrigerator,[3]; 3 months,White powder
same,Appearance stored in refrigerator,[3]; 6 months,White powder
same,Changes on exposure to atmosphere (appearance),[4]; 0:00 hrs:min,Powder
same,Changes on exposure to atmosphere (appearance),[4]; 0:30 hrs:min,Powder
same,Changes on exposure to atmosphere (appearance),[4]; 5:00 hrs:min,Semi-solid
same,Changes on exposure to atmosphere (appearance),[4]; 6:00 hrs:min,Semi-solid
same,precipitation from solution,[5],No precipitation
C#CCN[C@@H]1CCc2ccccc21.O=C(O)CC(O)(CC(=O)O)C(=O)O [Example 5.1],Extracted R-PAI (%),"[2]; free base extracted with toluene, solvent and citric acid:base mole proportions per example",0.06 g-1.75%
"C#CCN[C@@H]1CCc2ccccc21 [Mesylate, Rasagiline mesylate]",Hygroscopicity by KF,[1]; Table 8c,Not hygroscopic
"C#CCN[C@@H]1CCc2ccccc21.O=C(O)CC(O)(CC(=O)O)C(=O)O [Mono-citrate, mono-rasagiline citrate]",Content of extractable base (toluene) % on total base content,[2],1.75-3.6%
"C#CCN[C@@H]1CCc2ccccc21 [Rasagiline, R(+)-N-propargyl-1-aminoindan]",solubility,physchem,~2000 µg/mL
same,inhibition of MAO-B,[6],selective inhibitor
same,dissolves in aqueous reaction solution,[7],more than 10 wt %
same,Hygroscopicity by KF,[1]; Table 8b,Not hygroscopic
"C#CCNC1CCc2ccccc21.C#CCNC1CCc2ccccc21.C#CCNC1CCc2ccccc21.O=C(O)CC(O)(CC(=O)O)C(=O)O (stereo not drawn) [Tri-citrate, tri-rasagiline citrate]",Content of extractable base (toluene) % on total base content,[2],42.7%
Oxalate,Hygroscopicity by KF,[1]; Table 8c,Not hygroscopic
Tosylate,Water solubility,"[8]; Table 8c, from references",60000 to 70000 µg/mL
rasagiline citrate,hygroscopicity (in words),[4]; exposed to air/humidity at ambient temperature,highest hygroscopicity
rasagiline maleate,Water solubility (mg/ml),"[8]; Table 8c, from references",>=1000 mg/ml
same,solubility,"[8]; as described in U.S. Pat. No. 6,630,514",not less than 1000 mg/ml water
